Like-named read-outs stand apart in the source and are kept apart here.
What was measured:
[1] = tested on: neuroblastoma cell lines; assay: Cell based assay, cell viability (CellTiter-Glo), neuroblastoma cell lines; conditions: Homo sapiens; SH-SY5Y cell line
In short: (§1)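 ATP content as viability surrogate, luminescent read; 72 h compound, 0–2 μM final; cells plated 24 h prior.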

[2] = tested on: brain cancer cell lines; assay: Cell based assay, cell viability (CellTiter-Glo), brain cancer cell lines; conditions: Homo sapiens
[3] = tested on: lung cancer cell lines (e.g. NCI-H23, NCI-H1229); assay: Cell based assay, cell viability (CellTiter-Glo), lung cancer cell lines; conditions: Homo sapiens, 72 hours treatment, CellTiter-Glo
In short: as §1

[4] = U138-MG, U-138 MG cell line, read-out: IC50, Brain cancer cell line U-138 MG
[5] = T98G cell line, read-out: IC50, Brain cancer cell line T98G
[6] = U-251 MG cell line, read-out: IC50, Brain cancer cell line U-251 MG
[7] = A549 cells, read-out: IC50, lung cancer cell line A549
[8] = DMS 114 cells, read-out: IC50, lung cancer cell line DMS 114
[9] = NCI-H23 cells, read-out: IC50, lung cancer cell line NCI-H23
[10] = NCI-H460 cells, read-out: IC50, lung cancer cell line NCI-H460
[11] = NCI-H522 cells, read-out: IC50, lung cancer cell line NCI-H522
[12] = NCI-H1299 cells, read-out: IC50, lung cancer cell line NCI-H1299
[13] = NCI-H1437 cells, read-out: IC50, lung cancer cell line NCI-H1437

IC50 [1] | IC50 [2, 4] | IC50 [2, 5] | IC50 [2, 6] | IC50 [3, 7] | IC50 [3, 8] | IC50 [3, 9] | IC50 [3, 10] | IC50 [3, 11] | IC50 [3, 12] | IC50 [3, 13] | SMILES | IC50 ([3]; MRC-5 cells, read-out: IC50)
1220 nM | > 2000 nM | > 10000 nM | > 2000 nM | > 2000 nM | > 2000 nM | 1800 nM | > 2000 nM | > 2000 nM | > 2000 nM | > 10000 nM | COC(=O)c1ccc(C[S+]([O-])c2[nH]c3c(Cl)ccc(Cl)c3c(=O)c2C(C)=O)cc1 (stereo not drawn) [Compound 91, methyl 4-(((3-acetyl-5,8-dichloro-4-oxo-1,4-dihydroquinolin-2-yl)sulfinyl)methyl)benzoate] | > 2000 nM
> 2000 nM | > 10000 nM | > 10000 nM | > 2000 nM | > 2000 nM | > 2000 nM | > 2000 nM | > 2000 nM | > 2000 nM | > 2000 nM | > 10000 nM | COc1cccc2[nH]c(SCc3ccc(S(F)(F)(F)(F)F)cc3)c(C(C)=O)c(=O)c12 [Compound 92, 3-acetyl-5-methoxy-2-((4-(pentafluoro--sulfanyl)benzyl)thio)quinolin-4(1H)-one] | > 2000 nM
> 2000 nM | > 10000 nM | > 10000 nM | > 2000 nM | > 2000 nM | > 2000 nM | > 2000 nM | > 2000 nM | > 2000 nM | > 2000 nM | > 10000 nM | COc1cccc2[nH]c([S+]([O-])Cc3ccc(S(F)(F)(F)(F)F)cc3)c(C(C)=O)c(=O)c12 (stereo not drawn) [Compound 93, 3-acetyl-5-methoxy-2-((4-(pentafluoro--sulfanyl)benzyl)sulfinyl)quinolin-4(1H)-one] | > 2000 nM

Further lines, the compound ahead of its results:

SMILES | IC50 [1] | IC50 [2, 4] | IC50 [2, 5] | IC50 [2, 6] | IC50 [3, 7] | IC50 [3, 8] | IC50 [3, 9] | IC50 [3, 10] | IC50 [3, 11] | IC50 [3, 12] | IC50 [3, 13] | IC50 ([3]; MRC-5 cells, read-out: IC50)
CC(=O)c1c([S+]([O-])Cc2ccc(C(F)(F)F)o2)[nH]c2c(F)ccc(F)c2c1=O (stereo not drawn) [Compound 81, 3-acetyl-5,8-difluoro-2-(((5-(trifluoromethyl)furan-2-yl)methyl)sulfinyl)quinolin-4(1H)-one] | > 2000 nM | > 2000 nM | > 10000 nM | > 2000 nM | > 2000 nM | > 2000 nM | > 2000 nM | > 2000 nM | > 2000 nM | > 2000 nM | > 10000 nM | > 2000 nM
CC(=O)c1c([S+]([O-])Cc2cc(C)on2)[nH]c2c(F)ccc(F)c2c1=O (stereo not drawn) [Compound 82, 3-acetyl-5,8-difluoro-2-(((5-methylisoxazol-3-yl)methyl)sulfinyl)quinolin-4(1H)-one] | 1550 nM | > 2000 nM | > 10000 nM | > 2000 nM | > 2000 nM | > 2000 nM | > 2000 nM | > 2000 nM | > 2000 nM | > 2000 nM | > 10000 nM | > 2000 nM
CC(C)C(=O)c1c([S+]([O-])Cc2ccc(SC(F)(F)F)cc2)[nH]c2c(F)ccc(F)c2c1=O (stereo not drawn) [Compound 85, 5,8-difluoro-3-isobutyryl-2-((4-((trifluoromethyl)thio)benzyl)sulfinyl)quinolin-4(1H)-one] | > 2000 nM | > 10000 nM | > 10000 nM | > 2000 nM | > 2000 nM | > 2000 nM | > 2000 nM | > 2000 nM | > 2000 nM | > 2000 nM | > 10000 nM | > 2000 nM
O=C(c1ccccc1)c1c([S+]([O-])Cc2ccc(S(F)(F)(F)(F)F)cc2)[nH]c2c(F)ccc(F)c2c1=O (stereo not drawn) [Compound 87, 3-benzoyl-5,8-difluoro-2-((4-(pentafluoro--sulfanyl)benzyl)sulfinyl)quinolin-4(1H)-one] | > 2000 nM | > 10000 nM | > 10000 nM | > 2000 nM | > 2000 nM | > 2000 nM | > 2000 nM | > 2000 nM | > 2000 nM | > 2000 nM | > 10000 nM | > 2000 nM
Cc1cc(C[S+]([O-])c2[nH]c3c(Cl)ccc(Cl)c3c(=O)c2C(=O)c2ccccc2)no1 (stereo not drawn) [Compound 88, 3-benzoyl-5,8-dichloro-2-(((5-methylisoxazol-3-yl)methyl)sulfinyl)quinolin-4(1H)-one] | 1510 nM | > 10000 nM | > 10000 nM | > 2000 nM | > 2000 nM | > 2000 nM | > 2000 nM | > 2000 nM | > 2000 nM | > 2000 nM | > 10000 nM | > 2000 nM
CC(=O)c1c([S+]([O-])CN2C(=O)c3ccccc3C2=O)[nH]c2c(Cl)ccc(Cl)c2c1=O (stereo not drawn) [Compound 90, 2-(((3-acetyl-5,8-dichloro-4-oxo-1,4-dihydroquinolin-2-yl)sulfinyl)methyl)isoindoline-1,3-dione] | > 2000 nM | > 10000 nM | > 10000 nM | > 2000 nM | > 2000 nM | > 2000 nM | > 2000 nM | > 2000 nM | > 2000 nM | > 2000 nM | > 10000 nM | > 2000 nM
